Bounds are passed on as bounds.

The test system of series [1] is MM cells. Put plainly: Anti-CD38 chitosan NPs uptake mechanism (endosome co-localization, uptake inhibitors, 4° C.). It counts as cell-based, human. The settings on record: 30 min pre-incubation with inhibitor (cytochalasin D 1 μM, chlorpromazine 2 μM, nystatin 0.5 μg/ml, EGA 2.5 μM), then 2 h NPs. On the procedure:
Endocytosis is critical to the uptake of NPs in order to allow toxic effects in cells. MM cells were plated on glass bottom 8 well chambers and allowed to adhere overnight. CellLight Early Endosomes-GFP BacMam 2.0 reagent (targeting rab5) was added to result in a final concentration of 30 particles per cells and allowed to incubate with the cells for 18-24 h. Cells were washed twice with PBS and incubated with AF633 anti-CD38 chitosan NPs for 24 h. Cells were again washed twice with PBS and allowed to stay in phenol red free medium for imaging live under culture conditions of 37° C. and 5% CO2 at specified time points using FV1000 confocal microscope. To understand the process of internalization of anti-CD38 chitosan NPs, MM cells were pre-treated with inhibitors of macropinocytosis and phagocytosis (cytochalasin D), clathrin-mediated endocytosis (chlorpromazine), caveolae-mediated endocytosis (nystatin), or late endocytosis (EGA), prior to exposure to anti-CD38 chitosan NPs. […] MM cells (1×10^6 cell/ml) were pre-incubated at 37° C. with no inhibitor (Ctrl), cytochalasin D 1 μM, chlorpromazine 2 μM, nystatin 0.5 μg/ml, and EGA 2.5 μM or at 4° C. as control of the active uptake for 30 min. Cells were washed with PBS and incubated with AF633 anti-CD38 chitosan NPs for 2 h. Then, cells were washed and analyzed by flow cytometry for the fluorescence intensity of AF633.

In series [2] the test system is MM cells. The series can be described thus: Effect of macropinocytosis and endocytosis inhibitors on survival of MM cells by MTT. The settings on record: pre-incubation at 37° C. for 30 min; cytochalasin D 1 μM, chlorpromazine 2 μM, nystatin 0.5 μg/ml, EGA 2.5 μM. It counts as cell-based.
Series [3] relates to MM cell lines (MM.1S, H929, and RPMI8826). Put plainly: Cell viability of MM cells by MTT. The settings on record: BTZ 5 nM or equivalent, 48 h. It counts as cell-based, human.
Experimental: MM cell lines (MM.1S, H929, and RPMI8826) and PB MNCs were cultured with vehicle (control), BTZ as a free drug (5 nM), empty NPs, non-targeted NPs loaded with BTZ equivalent amounts to 5 nM, and anti-CD38 NPs loaded with BTZ equivalent amounts to 5 nM for 48 h. Cell viability was assessed using MTT solution followed by absorbance reading at 570 nm using a spectrophotometer as previously described [19]. Briefly, the MTT solution was added to the cells 48 h after starting the treatment, and 2-4 h later the stop solution was added.
The next series deals with PB MNCs. Put plainly: Cell viability of normal PB MNCs by MTT. It counts as cell-based, human. The settings on record: BTZ 5 nM or equivalent, 48 h. On the procedure: MM cell lines (MM.1S, H929, and RPMI8826) and PB MNCs were cultured with vehicle (control), BTZ as a free drug (5 nM), empty NPs, non-targeted NPs loaded with BTZ equivalent amounts to 5 nM, and anti-CD38 NPs loaded with BTZ equivalent amounts to 5 nM for 48 h. Cell viability was assessed using MTT solution followed by absorbance reading at 570 nm using a spectrophotometer as previously described. Briefly, the MTT solution was added to the cells 48 h after starting the treatment, and 2-4 h later the stop solution was added.

Series [4] relates to H929 cells. The series can be described thus: Cell cycle by propidium iodide flow cytometry. The settings on record: BTZ 5 nM or equivalent, 48 h. It counts as cell-based, human. The protocol:
Briefly, cells were washed, fixed with 70% ethanol, and washed again with PBS. RNA was degraded by incubation in RNAase for 30 minutes at 37° C., and the DNA was stained with PI solution for 10 minutes, then cells were analyzed by flow cytometry.
On the technique in general: A flow cytometer gives signals particle by particle.

Series [5] concerns H929 cells. Put plainly: Apoptosis by Annexin V / PI flow cytometry. It counts as cell-based, human. The settings on record: BTZ 5 nM or equivalent, 48 h. The protocol:
H929 cells (1×10^6 cell/ml) were cultured with vehicle (control), BTZ as a free drug (5 nM), empty chitosan NPs, non-targeted chitosan NPs loaded with BTZ equivalent amounts to 5 nM, and anti-CD38 chitosan NPs loaded with BTZ equivalent amounts to 5 nM for 48 h, and apoptosis was analyzed as previously described. Cells were washed and resuspended in 1× Annexin binding buffer, incubated with Annexin V for 15 minutes followed by staining with PI for extra 15 minutes, 1× binding buffer was added, and the cells were analyzed with flow cytometry.

The next series concerns proteasome. The series can be described thus: Proteasome activity assay (AMC-tagged peptide substrate) in extracts of treated MM cells. The format is cell-based, human. The settings on record: for effect of inhibition of macropinocytosis or endocytosis pathways on proteasome activity: free drug 5 nM with uptake inhibitors. On the procedure: Cell extracts were prepared in NP-40 lysis buffer from control and treated cells (BTZ as a free drug (5 nM), empty chitosan NPs, non-targeted chitosan NPs loaded with BTZ equivalent amounts to 5 nM, and anti-CD38 NPs loaded with BTZ equivalent amounts to 5 nM) retrieved after 2 h treatment with BTZ. Proteasome activity was determined using the AMC-tagged peptide substrate in a Proteasome Activity Assay Kit (abcam, Cambridge, Mass., USA) according to the manufacturer's protocol. Fluorescence was determined in a SpectraMax i3 Multi-Mode Detection Platform (Molecular Devices, Sunnyvale, Calif., USA) and proteasome activity was expressed as the amount of proteasome which generates 1.0 nmol of AMC per minute at 37° C.
Proteasome activity inhibition was also measured in combination with inhibitors of macropinocytosis and phagocytosis (cytochalasin D), clathrin-mediated endocytosis (chlorpromazine), caveolae-mediated endocytosis (nystatin), or late endocytosis (EGA), prior to exposure to anti-CD38 chitosan NPs loaded with BTZ equivalent amounts to 5 nM. MM cells were pre-incubated at 37° C. with no inhibitor (Ctrl), cytochalasin D 1 μM, chlorpromazine 2 μM, nystatin 0.5 μg/ml, and EGA 2.5 μM for 30 min. Cells were washed with PBS and incubated with anti-CD38 chitosan NPs loaded with BTZ equivalent amounts to 5 nM, then proteasome Activity Assay Kit was followed as in the previous experiment.

A further series has as its system MM.1S cells. The series can be described thus: Boron cellular accumulation by ICP-OES. The format is cell-based, human. The settings on record: 100 nM, 1.5 h. On the procedure:
MM.1S cells (40×10^6 cell/ml) were cultured with vehicle (control), BTZ as a free drug (100 nM), and anti-CD38 chitosan NPs loaded with BTZ equivalent amounts to 100 nM for 1.5 h. After the treatment the cells were spun down, washed, and cell pellet was digested in nitric acid. After dilution with deionized water, samples were microwave digested and then analyzed by ICP-OES for boron content.

Series [6] deals with MM.1S cells co-culture with MM-derived MSP-1 stromal cell line. Put plainly: Cell adhesion-mediated drug resistance, co-culture with MSP-1 stroma. It counts as cell-based, human. Particulars: BTZ 5 nM or equivalent, 48 h. On the procedure:
In addition, cell proliferation assay of MM.1S cells co-culture with or without MM-derived MSP-1 stromal cell line with vehicle (control), BTZ as a free drug (5 nM), empty chitosan NPs, non-targeted chitosan NPs loaded with BTZ equivalent amounts to 5 nM, and anti-CD38 chitosan NPs loaded with BTZ equivalent amounts to 5 nM for 48 h was analyzed.

Series [7] has as its system MM cells cultured in normoxic (21% O2) or hypoxic (1% O2) conditions. Put plainly: Hypoxia-mediated drug resistance. It counts as cell-based, human. The settings on record: BTZ 5 nM or equivalent, 48 h. The protocol: Furthermore, the effect of vehicle (control), BTZ as a free drug (5 nM), empty chitosan NPs, non-targeted chitosan NPs loaded with BTZ equivalent amounts to 5 nM, and anti-CD38 chitosan NPs loaded with BTZ equivalent amounts to 5 nM on proliferation of MM cells cultured in normoxic (21% O2) or hypoxic (1% O2) conditions for 48 h was measured.

The next series deals with MM.1S in 3DTEBM cultures. The series can be described thus: Survival of MM cells in 3D tissue engineered bone marrow (3DTEBM). It counts as cell-based, human. The settings on record: BTZ 10 nM or equivalent, 48 h. On the procedure: MM.1S (pre-labeled with Invitrogen cell tracers DiO (10 μg/ml) for 1 h) were cultured in relevant three-dimensional tissue engineered bone marrow (3DTEBM) cultures through crosslinking of fibrinogen as previously described. The effect of vehicle (control), BTZ as a free drug (10 nM), empty chitosan NPs, non-targeted chitosan NPs loaded with BTZ equivalent amounts to 10 nM, and anti-CD38 chitosan NPs loaded with BTZ equivalent amounts to 10 nM for 48 h was analyzed by flow cytometry. Higher BTZ doses (10 nM) are used in the 3DTEBM based on the known drug resistance of the cells in 3DTEBM cultures. Cell proliferation assays were performed by digestion of 3DTEBM cultures with type I collagenase (25 mg/ml for 2-3 h at 37° C.), followed by flow cytometry analysis using MACSQuant Analyzer (Miltenyi Biotec), and the data was analyzed using FlowJo program v10 (Ashland, Oreg.). Moreover, 3DTEBM cultures treated with AF633 anti-CD38 chitosan NPs loaded with BTZ equivalent amounts to 10 nM were imaged to determine NPs distribution by confocal microscopy after 24 h incubation.

For a further series, the system named is MM1s-GFP-Luc cells. The series can be described thus: MM tumor progression and survival in vivo. Details: species or system SCID mice. The settings on record: BTZ 1 mg/kg once a week. The protocol: (§1) MM1s-GFP-Luc cells were injected into forty female, 7-week old SCID mice i.v. at the concentration of 2×10^6 cells per mouse and tumor progression was evaluated using BLI. After 4 weeks, tumor bearing mice were randomized into 4 groups of 10 animals each and treated with: (i) vehicle, (ii) BTZ as a free drug (1 mg/kg once a week), (iii) non-targeted NPs loaded with BTZ equivalent amounts to 1 mg/kg (once a week), (iv) and anti-CD38 NPs loaded with BTZ equivalent amounts to 1 mg/kg (once a week). Tumor progression was followed in the 4 groups twice a week (for 5 weeks) by BLI; moreover the survival, weight, and general health of the animals was followed. In addition, 3 mice were taken from each group 3 weeks after the beginning of the treatment, and specimens of the BM, blood smear, spleen, liver, kidney, brain, spinal-cord and intestine were fixed and pathologically evaluated for treatment efficacy and histological tissue damage.

A short description of series [8]: Side effects in vivo (weight loss, hair loss, histological tissue damage). More on the design: species or system SCID mice. Particulars: BTZ 1 mg/kg once a week. The protocol: as §1

Take `Cc1cccc(C)c1NC(=O)N/N=C/c1ccc(Br)cc1` [EGA]: the “decrease of the uptake of the anti-CD38 NPs” value (from here on “decrease”) with MM cells [1] is on record as “about 25%”. For the same molecule, in the series with MM cells [2], the “effect on cell survival” value is “no effect on cell survival”.

With `CN(C)CCCN1c2ccccc2Sc2ccc(Cl)cc21` [chlorpromazine], in the series on MM cells [1], the “decrease” value was “about 25%”.

Consider `C=C1[C@@H](C)[C@H]2[C@H](Cc3ccccc3)NC(=O)[C@]23[C@H](OC(C)=O)/C=C/[C@@](C)(O)C(=O)[C@@H](C)C/C=C/[C@H]3[C@@H]1O` [cytochalasin D], for which the “decrease” value in the series with MM cells [1] is “did not affect”. Further, the “effect on cell survival” value with MM cells [2] is “no effect on cell survival”.

With `CC(C)C[C@H](NC(=O)[C@H](Cc1ccccc1)NC(=O)c1cnccn1)B(O)O` [free BTZ, bortezomib], in series [3], the “killing of MM cells” value is listed as 20%. Moreover, in the series with PB MNCs, the “effect on survival of PB MNCs” value is reported as “no effect”. The “effect on cell cycle” value in the series on H929 cells [4] is listed as “induced G0-G1 arrest”. Further, in the series with H929 cells [5], the “early apoptosis, late apoptosis and cell death” value is “induced increase early apoptosis and no effect on late apoptosis and death”. Besides, in the series with proteasome (BTZ 5 nM or equivalent, 2 h, MM cells (Experiment 7)), the proteasome activity inhibition amounted to 50%. Further, the “inhibition in the proteasome activity” value with proteasome (BTZ 5 nM or equivalent, without inhibition of the uptake routs (Experiment 8)) is on record as “about 40%”. For the same molecule, the “effect of inhibition of macropinocytosis or endocytosis pathways on proteasome activity” value with proteasome is “led to any significant effect”; with proteasome (listed as BTZ), “did not induce any change”. Moreover, the “accumulation of BTZ (boron content) in cells versus control” value in the series with MM.1S cells is reported as “very similar to the levels measured in control”. Further, the “cell adhesion-mediated drug resistance (stroma co-culture versus mono-culture)” value in series [6] was “induced resistance”. Further, the “hypoxia-mediated drug resistance (1% O2 versus 21% O2)” value in series [7] is “induced resistance”. Further, in the series with MM.1S in 3DTEBM cultures, the “killing of MM cells in the 3DTEBM” value is given as 8%. In addition, the “day by which all the group died” value in the series with MM1s-GFP-Luc cells is no more than 29 days. The “tumor size by BLI compared to vehicle treatment” value in the series with MM1s-GFP-Luc cells (5 weeks) was “efficacious in reducing tumor size”. Further, in series [8], the “hair loss compared to the vehicle-treated group” value is “significant hair loss”.

`C[C@@H]1[C@H](O)[C@@H](C)/C=C/C=C/CC/C=C/C=C/C=C/C=C/C(O[C@H]2O[C@H](C)[C@@H](O)[C@H](N)[C@@H]2O)CC2O[C@](O)(CC(O)C(O)CCC(O)CC(O)CC(O)CC(=O)O[C@H]1C)CC(O)C2C(=O)O` (stereo partly shown) [nystatin]: the “decrease” value in the series on MM cells [1] is given as “about 25%”. For the same molecule, in the series on MM cells [2], the “effect on cell survival” value is “no effect on cell survival”.

For the origin of these results see patent publication US20190269792A1, “NANOPARTICLE COMPOSITIONS COMPRISING CD38 AND METHODS OF USE THEREOF” (Washington University, priority 2016, published 2019).
